The values that follow come from patent US20230130766A1 (SALK INSTITUTE FOR BIOLOGICAL STUDIES, priority 2020, published 2023).

Experiment [1] relates to MDA-MB-468 cells expressing mCherry-EGFP-LC3. Kind of experiment: Autophagic flux by flow cytometry. Conditions: Compound 349 10 μM concomitant with olaparib 30 μM; 48 h. It is filed as cell-based. Here is the method:
To investigate the mechanism by which Compound 349 potentiates the cytotoxic effects of PARP inhibitors, MDA-MB-468 cells expressing mCherry-EGFP-LC3 were treated with olaparib (30 μM) and/or Compound 349 (10 μM) for 48 h and then quantified for autophagic flux. For these experiments, MDA-MB-468 cells stably expressing the mCherry-GFP-LC3 fusion protein were plated in 6-well plates at a density of 6×10^5 cells/well in growth media DMEM/F12+GlutaMAX-1 (Gibco) supplemented with 10% FBS (Gibco) and 1× Anti-Anti (Gibco) and allowed to grow overnight. Cells were treated, trypsinized, and then resuspended in PBS, and analytical cytometry was performed using an LSRFortessa 14-color (BD Biosciences) with a 488 nm and […] laser. For flow cytometry, wild type MDA-MB-468 cells were used as the unstained control, and MDA-MB-468 cells expressing either mCherry or GFP were used for comparison. Events of 10,000 were collected for each sample.
(In flow cytometry, cells or beads pass a laser one at a time.)

A further experiment has as its target T1, ULK1 (Homo sapiens, UniProt O75385).
T1 sequence (O75385 1-1050): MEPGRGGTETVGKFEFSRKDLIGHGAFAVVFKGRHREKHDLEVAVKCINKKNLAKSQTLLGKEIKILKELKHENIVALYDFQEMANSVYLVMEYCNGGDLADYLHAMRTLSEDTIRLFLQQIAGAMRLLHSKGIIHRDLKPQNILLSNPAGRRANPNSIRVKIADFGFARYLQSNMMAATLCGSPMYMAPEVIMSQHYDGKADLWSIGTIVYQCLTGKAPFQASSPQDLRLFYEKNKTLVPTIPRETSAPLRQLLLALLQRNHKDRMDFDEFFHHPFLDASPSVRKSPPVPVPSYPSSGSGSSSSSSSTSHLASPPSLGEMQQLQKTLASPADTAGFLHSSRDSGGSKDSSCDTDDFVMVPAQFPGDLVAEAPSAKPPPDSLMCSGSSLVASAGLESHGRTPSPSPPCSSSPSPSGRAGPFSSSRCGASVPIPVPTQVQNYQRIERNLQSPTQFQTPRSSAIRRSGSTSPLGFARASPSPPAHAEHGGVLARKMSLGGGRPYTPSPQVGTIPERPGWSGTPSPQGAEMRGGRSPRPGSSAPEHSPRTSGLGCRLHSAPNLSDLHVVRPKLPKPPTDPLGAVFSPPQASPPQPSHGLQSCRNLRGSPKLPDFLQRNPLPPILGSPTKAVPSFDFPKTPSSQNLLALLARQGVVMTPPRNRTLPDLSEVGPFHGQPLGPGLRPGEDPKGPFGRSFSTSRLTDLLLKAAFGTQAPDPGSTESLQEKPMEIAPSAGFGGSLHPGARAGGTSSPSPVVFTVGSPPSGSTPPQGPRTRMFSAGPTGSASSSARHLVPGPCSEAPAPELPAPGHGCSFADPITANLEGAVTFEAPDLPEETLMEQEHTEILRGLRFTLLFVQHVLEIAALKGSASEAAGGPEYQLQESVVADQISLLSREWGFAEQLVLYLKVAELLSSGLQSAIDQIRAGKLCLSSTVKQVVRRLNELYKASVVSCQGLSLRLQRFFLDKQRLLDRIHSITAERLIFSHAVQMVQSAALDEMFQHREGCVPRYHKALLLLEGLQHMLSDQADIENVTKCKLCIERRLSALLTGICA
Kind of experiment: ULK1 inhibition assay. Conditions: * = tested as a mixture of regioisomers. It is filed as biochemical.

A further experiment relates to MDA-MB-468 cells. Kind of experiment: CellTiter-Glo cell viability dose-response matrix, synergy by Combenefit (Loewe model). The conditions noted are these: 72 h. It is filed as cell-based. As for the experimental part: Different concentrations of Compound 349 with olaparib (FIG. 13A) were tested to measure the combined effect of inhibiting both ULK1/2 and PARP. For these experiments, MDA-MB-468 cells were treated with Compound 349 (0-15 μM) and olaparib (0-15 μM) in a dose-response matrix for 72 h, and cell viability was assessed by a CellTiter-Glo assay, and the synergistic effect was analyzed with Combenefit using the Loewe model.
A general note: In ATP-based viability assays light output follows the ATP content of the culture.

A word on the IC50: it is the concentration at which inhibition is half-maximal. Take `COc1ccc(Nc2ncc(C(F)(F)F)c(NC3CC3)n2)cc1OC` [Compound 349]: the “olaparib-induced increase in autophagic flux” value in experiment [1] is “significantly suppressed the olaparib-induced increase in autophagic flux to a level similar to that observed in untreated control cells”. In addition, the IC50 on ULK1 was below 200 nM. Moreover, the antiproliferative synergy entry with MDA-MB-468 cells (Compound 349 (0-15 μM) with olaparib (0-15 μM)) is “strong antiproliferative synergy”. Further, in the experiment on MDA-MB-468 cells (Compound 349 (0-15 μM) with olaparib (0-15 μM), Loewe model), the maximum synergy score was 34. Besides, the “concentrations at which significant synergy was observed” value with MDA-MB-468 cells (combination of Compound 349 and olaparib) lay in the range of 0.021 to 15 µM.
